Values quoted from earlier work, collected in US5998415A, “Bicyclic heteroaryl-alkylene-(homo)piperazinones and thione analogues thereof, their preparation, and their use of as selective agonists of 5-HT1 -like receptors” (Merck Sharp & Dohme Ltd., priority 1995, dated 1999).

Key:
[1] = system: human 5-HT1Dα and 5-HT1Dβ receptor subtypes; conditions: cf. WO-A-91/17174, Table 1
[2] = humans, therapeutic doses

## CNS(=O)(=O)Cc1ccc2[nH]cc(CCN(C)C)c2c1 [sumatriptan]
[1]
  discrimination between the human 5-HT1Dα and 5-HT1Dβ receptor subtypes (in words): barely discriminates between the human 5-HT1Dα and 5-HT1Dβ receptor subtypes
[2]
  adverse cardiovascular events (in words): certain adverse cardiovascular events
